Experiments:
MCF-7 cells [1] = assay: Transwell migration assay, IGF-I+IGFBP-5+VN trimeric complex-stimulated MCF-7 cell migration; type: cell-based, human
Text: Two motifs (motifs 1 and 8) within native VN, deemed potentially significant in supporting the binding of IGF-II, IGFBP-3 and IGFBP-5, were identified as outlined in the previous section. After preliminary in silico analyses motif 8 (J4-7) was deemed as potentially the most significant region within native VN supporting binding interactions of all the three IGF-II, IGFBP-3 and IGFBP-5 proteins and was chosen for the initial analyses. The VN-peptide covering the sequences of motif 8 was designed such that it covered all the 3AA frameshift sets that contributed to a positive spot within the motif 8 (see, FIG. 3 and Table 7). The sequence of this peptide is RVNLRTRRVDTVDPPYPRS [SEQ ID NO:100] and is designated P8. […] The sequence of that peptide is […] [SEQ ID NO:86] and is designated P7. […] The functional effects of these peptides on IGF-I:IGFBP:VN-stimulated breast cancer cell migration were investigated using Transwell® assays. Transwells® were pre-bound with VN, either alone or in combination with IGF-I and IGFBP-5 (TRI). Treatment with TRI supplemented with increasing concentrations of peptides P7 and/or P8 were assayed. TRI supplemented with Anlg or Neg peptide were included as positive and negative controls of migration inhibition, respectively. All unbound proteins were removed with washing and MCF-7 cell migration was assessed over 15 hours.
The Transwell® inserts were prepared by pre-binding the lower chamber and the under-surface of the 8-μm pore membranes with proteins as described below. For all 2D functional assays described throughout this study, including Transwell® the treatments for the pre-binding steps were VN, IGF-I+IGFBP-5+VN (TRI) complex, either alone or in combination with respective controls or VN-peptides. The concentrations of the proteins added into the culture wells were VN, 1 μg/mL; IGF-I, 30 ng/mL and IGFBP-5, 90 ng/mL, unless otherwise stated. The concentration of VN-peptides used are indicated where appropriate.
Optimal IGF-I:IGFBP-5:VN-mediated attachment and migration of MCF-7 cells in multiwell plates is obtained by pre-binding human native-IGF-I and/or IGFBP-5 and VN at concentrations of 30 ng/mL, 90 ng/mL and 1 μg/mL per well, respectively, to the lower chambers and under surfaces of Transwells®. […] For Anlg, concentrations varying from 30 ng/mL to 300 ng/mL were used.
Transwells® were prepared by pre-binding the test proteins, either alone or in combinations, to the lower chambers and under-surfaces of Transwells® following procedures previously described (Kricker et al., 2003). Briefly, 0.5 mL DMEM/F12 serum-free phenol-red free medium (SFM) containing 1 μg/mL VN was added to the lower chambers of 24-well, 8-μm pore Transwell® plates and incubated for 3 hours at 37° C. Unbound VN was removed and the wells were washed twice with 0.5 mL SFM+0.5% BSA following which 0.5 mL of SFM+0.5% BSA was placed in the lower chamber to block surfaces with no protein bound. To pre-bind growth factors, 0.5 mL SFM+0.05% BSA containing native IGF-I (30 ng/mL), IGFBP-5 (90 ng/mL) or Anlg, either alone or in combination, were added to the lower chambers of the Transwells® and incubated overnight at 4° C. The solution containing unbound growth factors was removed and the wells were washed twice with SFM+0.05% BSA and replaced with 0.5 mL of SFM+0.05% BSA. Throughout the pre-binding procedure care was taken to keep the upper surface of the Transwell® inserts dry.
Migration assays were essentially performed following protocols described previously in Leavesley et al 1993, J Cell Biol. 121:163-70. The cells in culture flasks were split 1:1, 24 hours prior to performing the migration assay. The cells were serum-starved for 4 hours and a cell suspension containing 6×10^4 cells in 200 μL SFM+0.05% BSA was seeded onto the upper-surface of the pre-coated Transwell® inserts and incubated for 15 hours at 37° C., 5% CO2 (refer to above for proteins pre-bound and concentrations used). […]

MCF-7 cells [2] = assay: Transwell migration assay, IGF-I+IGFBP-3+VN (TRI)-stimulated MCF-7 cell migration; type: cell-based, human
Description: FIG. 6 is a graphical representation showing MCF-7 cell migration in response to VN peptides. MCF-7 cells were seeded onto the upper-surface of a Transwell inserts coated on the under-surface with treatments containing IGF-I+IGFBP-3+VN (TRI; 10 nM) with or without increasing concentrations of either peptide P7, P8 or Pneg. Migration was assessed after 15 hours. Data is represented as percentage of change in migration compared to the TRI only control. Error bars indicate standard error mean.
This assay has been repeated three times with treatments tested in triplicate wells in each replicate experiment.
The breast cancer epithelial cell line MCF-7 was used for this assay. Migration was assessed by measuring relative number of cells migrating through 8-μm pore Transwell membranes in response to substrate-bond proteins complexes. IGFBP-3 was allowed to bind either peptide P7, P8 or a combination of P7 and P8 for 2 hours. IGF-I was later added to this protein mix which was then added to Transwells pre-coated with VN. Post-overnight incubation, unbound proteins were removed, Transwells washed twice and cells seeded onto the upper chamber. Cells migrated to the under-surface over 15 hours were indirectly quantified using crystal violet staining.

[3] = increasing peptide concentrations added to TRI (IGF-I+IGFBP-3+VN; 10 nM), 15 hours

| Sequence | MCF-7 cell migration (MCF-7 cells [1]; TRI supplemented with non-binding peptide, concentration not given, 15 hours) | Effect on TRI-stimulated MCF-7 cell migration (MCF-7 cells [1]; non-binding peptide supplemented into TRI, concentration not given) | Inhibition of TRI-stimulated MCF-7 cell migration (MCF-7 cells [2]; [3]) | MCF-7 cell migration (MCF-7 cells [1]; TRI supplemented with peptide at 3× molar concentration of IGFBP-5 (43 ng/mL P7, 38 ng/mL P8), 15 hours) | MCF-7 cell migration (MCF-7 cells [1]; TRI supplemented with peptide at 9× molar concentration of IGFBP-5, 15 hours) | Inhibition of TRI-stimulated MCF-7 cell migration (MCF-7 cells [2]; 30 nM peptide dose, TRI 10 nM, 15 hours (most significant inhibition)) |
| --- | --- | --- | --- | --- | --- | --- |
| KTYLFKGSQYWRFEDG [Neg, reference compound] | 276±24 % of VN | did not affect | no inhibition of cell migration was observed |  |  |  |
| LFSSEESNLGANNYDDYRMDWL (listed as Homo sapiens) [Peptide P7, human VN motif 7 mimic] |  |  | dose dependent inhibition | 94.7±0.2 % of VN | 146±14 % of VN | returned to the ‘VN only’ treatment levels |
